# How the values were obtained:
# PAE P1401_S = assay: Colistin disk diffusion, guanidine hydrochloride medium, P1401_S; type: cell-based, Pseudomonas aeruginosa; settings: 30% agar
# Experimental: (§1) A concentration of agar particles (BD Diagnostic, Sparks, Md., USA) in Mueller-Hinton broth medium (BD Diagnostic) was adjusted to 5.1 g/L, which is 30% of 17 g/L, and guanidine hydrochloride was added to a concentration of 500 μg/ml, 50 μg/ml, or 5 μg/ml. Then, solidification was performed. On a surface of each medium thus prepared was evenly inoculated each of colistin-susceptible (S) or -resistant (R) Acinetobacter baumannii (ABA) strain, colistin-susceptible (S) or -resistant (R) Klebsiella pnemoniae (KPN) strain, and colistin-susceptible (S) or -resistant (R) Pseudomonas aeruginosa (PAE) strain, and a colistin disk was placed thereon. Then, pictures of a growth inhibition zone, which had been formed clear, around the disk were taken for each strain, and the results are illustrated in FIGS. 8 to 10.
# [1] = tested on: colistin-susceptible (S) Acinetobacter calcoaceticus-baumannii complex (ACB) strain; assay: Colistin disk diffusion on modified Mueller-Hinton agar, ACB-S; type: cell-based
# Experimental: (§2) To each MHA thus modified was added protamine (Sigma-Aldrich, St Louis, Mo., USA) at a concentration of 100 μg/ml, and solidification was performed. Then, on a surface of the medium was evenly inoculated each of colistin-susceptible (S) or -resistant (R) Acinetobacter calcoaceticus-baumannii complex (ACB) strain, Pseudomonas aeruginosa ATCC27853 strain, Escherichia coli ATCC25922 strain, and mcr-1-harboring Enterobacter aerogenes strain, and a colistin disk was placed thereon. Subsequently, a diameter of a growth inhibition zone (colistin inhibition zone), which had been formed clear by diffusion of colistin to the agar around the colistin disk, was measured.
# (§3) As in Example 1, a concentration of agar particles (BD Diagnostic, Sparks, Md., USA) in Mueller-Hinton broth medium (BD Diagnostic) was adjusted to 17 g/L or 5.1 g/L that is 30% of 17 g/L. To select a concentration of protamine, which can enhance diffusion of colistin from a disk without interfering with bacterial growth, while using the protamine at various concentrations, protamine (Sigma-Aldrich, St Louis, Mo., USA) was added to the medium at concentrations of 1 mg/ml, 700 μg/ml, 400 μg/ml, 300 μg/ml, 200 μg/ml, 150 μg/ml, 100 μg/ml, and 50 μg/ml. Each medium thus modified was solidified. Then, on a surface of each medium was evenly inoculated each of colistin-susceptible (S) or -resistant (R) Acinetobacter calcoaceticus-baumannii complex (ACB) strain, Pseudomonas aeruginosa ATCC27853 strain, and mcr-1-harboring Enterobacter aerogenes strain, and a colistin disk was placed thereon. Then, it was determined whether each strain was grown, and a diameter of a growth inhibition zone, which had been formed around the disk, was measured.
# ABA A532_R = assay: Colistin disk diffusion, guanidine hydrochloride medium, A532_R; type: cell-based, Acinetobacter baumannii; settings: 30% agar
# Experimental: as §1
# [2] = tested on: mcr-1-harboring Enterobacter aerogenes strain; assay: Colistin disk diffusion on modified Mueller-Hinton agar, mcr-1; type: cell-based
# Experimental: as §2, §3
# KPN K3007_S = assay: Colistin disk diffusion, guanidine hydrochloride medium, K3007_S; type: cell-based, Klebsiella pnemoniae; settings: 30% agar
# Experimental: as §1
# PAE P1618_R = assay: Colistin disk diffusion, guanidine hydrochloride medium, P1618_R; type: cell-based, Pseudomonas aeruginosa; settings: 30% agar
# Experimental: as §1
# [3] = guanidine hydrochloride 5 μg/ml
# [4] = guanidine hydrochloride 50 μg/ml
# [5] = guanidine hydrochloride 500 μg/ml
# [6] = 30% agar, protamine 1,000 μg/ml
# [7] = 100% agar, protamine 1,000 μg/ml
substance,measurement,setting,value
colistin,Disk diffusion (mm),PAE P1401_S; [3],16 mm
same,Disk diffusion (mm),PAE P1401_S; [4],15 mm
same,Disk diffusion (mm),PAE P1401_S; [5],16 mm
same,Disk diffusion (mm),"[1]; 30% agar, protamine 50 μg/ml",14 mm
same,Diameter (mm) of colistin inhibition zone,"[1]; 30% agar, protamine 100 μg/ml",16 mm
same,Disk diffusion (mm),"[1]; 30% agar, protamine 100 μg/ml",15 mm
same,Disk diffusion (mm),"[1]; 30% agar, protamine 150 μg/ml",15 mm
same,Disk diffusion (mm),"[1]; 30% agar, protamine 200 μg/ml",14 mm
same,Disk diffusion (mm),"[1]; 30% agar, protamine 300 μg/ml",6 mm
same,Disk diffusion (mm),"[1]; 30% agar, protamine 400 μg/ml",6 mm
same,Disk diffusion (mm),"[1]; 30% agar, protamine 700 μg/ml",6 mm
same,Disk diffusion (mm),[1]; [6],6 mm
same,Diameter (mm) of colistin inhibition zone,"[1]; 40% agar, protamine 100 μg/ml",15 mm
same,Diameter (mm) of colistin inhibition zone,"[1]; 50% agar, protamine 100 μg/ml",13 mm
same,Diameter (mm) of colistin inhibition zone,"[1]; 60% agar, protamine 100 μg/ml",13 mm
same,Diameter (mm) of colistin inhibition zone,"[1]; 70% agar, protamine 100 μg/ml",13 mm
same,Diameter (mm) of colistin inhibition zone,"[1]; 80% agar, protamine 100 μg/ml",12 mm
same,Diameter (mm) of colistin inhibition zone,"[1]; 90% agar, protamine 100 μg/ml",12 mm
same,Disk diffusion (mm),"[1]; 100% agar, protamine 50 μg/ml",13 mm
same,Diameter (mm) of colistin inhibition zone,"[1]; 100% agar, protamine 100 μg/ml",12 mm
same,Disk diffusion (mm),"[1]; 100% agar, protamine 100 μg/ml",12 mm
same,Disk diffusion (mm),"[1]; 100% agar, protamine 150 μg/ml",13 mm
same,Disk diffusion (mm),"[1]; 100% agar, protamine 200 μg/ml",12 mm
same,Disk diffusion (mm),"[1]; 100% agar, protamine 300 μg/ml",13 mm
same,Disk diffusion (mm),"[1]; 100% agar, protamine 400 μg/ml",14 mm
same,Disk diffusion (mm),"[1]; 100% agar, protamine 700 μg/ml",10 mm
same,Disk diffusion (mm),[1]; [7],6 mm
same,Disk diffusion (mm),ABA A532_R; [3],9 mm
same,Disk diffusion (mm),ABA A532_R; [4],9 mm
same,Disk diffusion (mm),ABA A532_R; [5],9 mm
same,Disk diffusion (mm),"[2]; 30% agar, protamine 50 μg/ml",9 mm
same,Diameter (mm) of colistin inhibition zone,"[2]; 30% agar, protamine 100 μg/ml",11 mm
same,Disk diffusion (mm),"[2]; 30% agar, protamine 100 μg/ml",9 mm
same,Disk diffusion (mm),"[2]; 30% agar, protamine 150 μg/ml",9 mm
same,Disk diffusion (mm),"[2]; 30% agar, protamine 200 μg/ml",8 mm
same,Disk diffusion (mm),"[2]; 30% agar, protamine 300 μg/ml",6 mm
same,Disk diffusion (mm),"[2]; 30% agar, protamine 400 μg/ml",6 mm
same,Disk diffusion (mm),"[2]; 30% agar, protamine 700 μg/ml",6 mm
same,Disk diffusion (mm),[2]; [6],6 mm
same,Diameter (mm) of colistin inhibition zone,"[2]; 40% agar, protamine 100 μg/ml",10 mm
same,Diameter (mm) of colistin inhibition zone,"[2]; 50% agar, protamine 100 μg/ml",11 mm
same,Diameter (mm) of colistin inhibition zone,"[2]; 60% agar, protamine 100 μg/ml",10 mm
same,Diameter (mm) of colistin inhibition zone,"[2]; 70% agar, protamine 100 μg/ml",10 mm
same,Diameter (mm) of colistin inhibition zone,"[2]; 80% agar, protamine 100 μg/ml",9 mm
same,Diameter (mm) of colistin inhibition zone,"[2]; 90% agar, protamine 100 μg/ml",10 mm
same,Disk diffusion (mm),"[2]; 100% agar, protamine 50 μg/ml",9 mm
same,Diameter (mm) of colistin inhibition zone,"[2]; 100% agar, protamine 100 μg/ml",10 mm
same,Disk diffusion (mm),"[2]; 100% agar, protamine 100 μg/ml",9 mm
same,Disk diffusion (mm),"[2]; 100% agar, protamine 150 μg/ml",10 mm
same,Disk diffusion (mm),"[2]; 100% agar, protamine 200 μg/ml",9 mm
same,Disk diffusion (mm),"[2]; 100% agar, protamine 300 μg/ml",10 mm
same,Disk diffusion (mm),"[2]; 100% agar, protamine 400 μg/ml",8 mm
same,Disk diffusion (mm),"[2]; 100% agar, protamine 700 μg/ml",10 mm
same,Disk diffusion (mm),[2]; [7],6 mm
same,Disk diffusion (mm),KPN K3007_S; [3],17 mm
same,Disk diffusion (mm),KPN K3007_S; [4],16 mm
same,Disk diffusion (mm),KPN K3007_S; [5],16 mm
same,Disk diffusion (mm),PAE P1618_R; [3],12 mm
same,Disk diffusion (mm),PAE P1618_R; [4],13 mm
same,Disk diffusion (mm),PAE P1618_R; [5],13 mm
